Data reported in patent publication US20130310374A1, “Substituted Imidazoquinoline Derivatives” (PIRAMAL ENTERPRISES LIMITED`, priority 2010, published 2013).

Assays:
[1] = system: T315I; experiment: Cytotoxicity propidium iodide assay, T315I; format: cell-based; details: T315I (CML), 48 hours treatment; read-out: IC50 Values in μM, C6b
Procedure: (§1) The assay was designed as in the reference, Anticancer Drugs, 2002, 13, 1-8, the disclosure of which is incorporated herein by reference for the teaching of the assay.
(§2) Cells from cell lines (ATCC) as mentioned in the table given below were seeded at a density of 3000 cells/well in a white opaque 96-well plate. Following incubation at 37° C./5% CO2 for a period of 18-24 hours, the cells were treated with various concentrations (stock solution was prepared in DMSO and subsequent dilutions were made in media as per ATCC guidelines) of the compounds of the present invention for a period of 48 hours. At the end of treatment, the culture medium was discarded, the cells were washed with 1×PBS and 200 μL of […] propidium iodide was added to each well. The plates were frozen at 70° C. overnight. For analysis, the plates were warmed to RT, allowed to thaw and were read in PoleStar fluorimeter with the fluorescence setting. The percentage of viable cells in the non-treated set of wells was considered to be 100 and the percentage viability following treatment was calculated accordingly. IC50 values were calculated from graphs plotted using these percentages. IC50 values for certain compounds of present invention are depicted in Table 1 and % Inhibition of certain compounds of present invention are depicted in Table 2.

[2] = system: KCL22/SR; experiment: Cytotoxicity propidium iodide assay, KCL22/SR; format: cell-based; details: Homo sapiens, KCL-22; KCL22/SR (CML), 48 hours treatment; read-out: IC50 Values in μM, C6e
Procedure: as §1, §2

[3] = system: K562; experiment: Cytotoxicity propidium iodide assay, K562; format: cell-based; details: Homo sapiens; K562 (CML), 48 hours treatment; read-out: IC50 Values in μM, C6a
Procedure: as §1, §2

[4] = system: A2780; experiment: Cytotoxicity propidium iodide assay, A2780; format: cell-based; details: Homo sapiens; for IC50: A2780 (ovarian), 48 hours treatment, read-out: IC50 Values in μM, C1a
Procedure: as §1, §2

[5] = system: PC3; experiment: Cytotoxicity propidium iodide assay, PC3; format: cell-based, human; details: Homo sapiens, PC-3; for IC50: PC3 (prostate), 48 hours treatment, read-out: IC50 Values in μM, C2a
Procedure: as §1, §2

[6] = system: KU812/SR; experiment: Cytotoxicity propidium iodide assay, KU812/SR; format: cell-based; details: Homo sapiens; KU812/SR (CML), 48 hours treatment; read-out: IC50 Values in μM, C6c
Procedure: as §1, §2

[7] = system: KCL22; experiment: Cytotoxicity propidium iodide assay, KCL22; format: cell-based; details: Homo sapiens, KCL-22; KCL22 (CML), 48 hours treatment; read-out: IC50 Values in μM, C6f
Procedure: as §1
as §2, with “The plates were frozen at 70° C. overnight.” left out

[8] = system: BT 549; experiment: Cytotoxicity propidium iodide assay, BT 549; format: cell-based; details: Homo sapiens; BT 549 (breast), 48 hours treatment; read-out: IC50 Values in μM, C3c
Procedure: as §1, §2

[9] = system: LN18; experiment: Cytotoxicity propidium iodide assay, LN18; format: cell-based; details: Homo sapiens, LN-18; LN18 (glioblastoma), 48 hours treatment; read-out: IC50 Values in μM, C5b
Procedure: as §1, §2

[10] = system: U 87 MG; experiment: Cytotoxicity propidium iodide assay, U 87 MG; format: cell-based; details: Homo sapiens; U 87 MG (glioblastoma), 48 hours treatment; read-out: IC50 Values in μM, C5c
Procedure: as §1
as §2, with “The plates were frozen at 70° C. overnight.” left out

[11] = system: LN229; experiment: Cytotoxicity propidium iodide assay, LN229; format: cell-based; details: Homo sapiens, LN-229; LN229 (glioblastoma), 48 hours treatment; read-out: IC50 Values in μM, C5a
Procedure: as §1, §2

[12] = system: IFN-γ; experiment: Anti-CD3 mAb and anti-CD28 mAb-induced cytokine production assay, IFN-γ; format: cell-based; details: Homo sapiens, hPBMC, anti-CD3/anti-CD28, 18 hours
Procedure: (§3) Anti-CD3 mAb and Anti-CD28 mAb-Induced Cytokine Production Assay
(§4) Preparation of anti-CD3/anti-CD28 coated plates: 96 well plates were coated with goat anti-mouse IgG, Fc (Millipore) at a concentration of 16.5 μg/mL in coating buffer ([…] NaHCO3, 3.56 g Na2CO3, pH 9.5). Following overnight incubation at 4° C., the plates were washed and then incubated with anti-CD3 (3.5 μg/mL; R&D Systems) and anti-CD28 (35 ng/mL; R&D Systems) cocktail for 3 hours. Subsequently, the plates were washed, and used for hPBMC stimulation.
(§5) hPBMC stimulation: Peripheral blood was collected from normal healthy volunteers after informed consent. Peripheral blood mononuclear cells (hPBMC) were harvested using Ficoll-Hypaque density gradient centrifugation (1.077 g/mL; Sigma Aldrich). hPBMCs were resuspended in RPMI 1640 culture medium (Gibco BRL, Pasley, UK) containing 10% FCS, 100 U/mL penicillin (Sigma Chemical Co. St Louis, Mo.) and […] streptomycin (Sigma Chemical Co. St Louis, Mo.) at 1.25×10^6 cells/mL of assay medium. 2.5×10^5 hPBMCs were added per well of 96-well plate coated with or without anti-CD3/anti-CD28 mAbs. Simultaneously, 0.025 μM of compounds of the present invention or 0.5% DMSO (vehicle control) were added to appropriate wells. The cells were then incubated for 18 hours at 37° C., 5% CO2 following which supernatants were collected, stored at […] and assayed later for TNF-α, IL-6 and IFN-γ by ELISA (OptiEIA ELISA sets; BD Biosciences). In every experiment, each condition was run in triplicate wells. In all experiments, the toxicity of test compounds was ascertained, in parallel, using the MTS (3-(4,5-dimethylthiazol-2-yl)-5-(3-carboxymethoxyphenyl)-2-(4-sulfonyl)-2H-tetrazolium) assay as described in Am. J. Physiol. Cell Physiol., 2003, 285, C813-C822.

[13] = system: hPBMC; experiment: MTS toxicity assay in parallel to anti-CD3/anti-CD28 cytokine assay; format: cell-based, human; details: anti-CD3/anti-CD28 experiment
Procedure: as §5

[14] = system: IL-6; experiment: Anti-CD3 mAb and anti-CD28 mAb-induced cytokine production assay, IL-6; format: cell-based; details: Homo sapiens, hPBMC, anti-CD3/anti-CD28, 18 hours
Procedure: as §3, §4, §5

[15] = system: IFN-γ; experiment: Con-A-induced IFN-γ production from hPBMC; format: cell-based; details: Homo sapiens, concanavalin A 1 μg/mL, 18 hours
Procedure: Con-A-Induced IFN-γ Production from hPBMC
(§6) Peripheral blood was collected from normal healthy volunteers after informed consent. Peripheral blood mononuclear cells (hPBMC) were harvested using Ficoll-Hypaque density gradient centrifugation (1.077 g/mL; Sigma Aldrich). hPBMCs were resuspended in RPMI 1640 culture medium (Gibco BRL, Pasley, UK) containing 10% FCS, 100 U/mL penicillin (Sigma Chemical Co. St Louis, Mo.) and […] streptomycin (Sigma Chemical Co. St Louis, Mo.) at 1×10^6 cells/mL. 1×10^5 hPBMCs/well were pre-treated with 0.025 μM of compounds of present invention or 0.5% DMSO (vehicle control) for 30 minutes at 37° C. Subsequently, these cells were stimulated with 1 μg/mL concanavalin A (Sigma Chemical Co., St. Louis, Mo.). Following 18 hours of incubation at 37° C., supernatants were collected and stored at −70° C. until assayed for human IFN-γ by ELISA as described by the manufacturer (OptiEIA ELISA sets, BD BioSciences). In every experiment, cyclosporin (1 μM) was used as a positive control for inhibiting induced IFN-γ production. In all experiments, the toxicity of test compounds was ascertained, in parallel, using the MTS (3-(4,5-dimethylthiazol-2-yl)-5-(3-carboxymethoxyphenyl)-2-(4-sulfonyl)-2H-tetrazolium) assay as described in Am. J. Physiol. Cell Physiol., 2003, 285, C813-C822.

[16] = system: TNF-α; experiment: Anti-CD3 mAb and anti-CD28 mAb-induced cytokine production assay, TNF-α; format: cell-based; details: Homo sapiens, hPBMC, anti-CD3/anti-CD28, 18 hours
Procedure: as §3, §4, §5

[17] = system: hPBMC; experiment: MTS toxicity assay in parallel to Con-A-induced IFN-γ assay; format: cell-based, human; details: Con-A experiment
Procedure: as §6

[18] = system: BxPC3; experiment: Cytotoxicity propidium iodide assay, BxPC3; format: cell-based; details: Homo sapiens, BXPC-3; BxPC3 (pancreatic), 48 hours treatment; read-out: IC50 Values in μM, C4c
Procedure: as §1, §2

[19] = system: PI3K/mTOR pathway; experiment: Western blot analysis in A2780 ovarian cancer cell line; format: cell-based; details: A2780 cells treated for 1 hour; FIG. 1A-1E
Procedure: Protocol for Western Blot Analysis
A2780 ovarian cancer cell line (ATCC) were grown to approximately 70% confluence in 100-mm tissue culture dishes and then treated for 1 hour with […] compounds of Example 2, 3, 5, 16, 19, 55 and 59. Total protein was extracted using cell lysis buffer (NaCl […], NP40 0.67%, Tris-Cl, pH 7.5, 67 mM) containing protease inhibitors and phosphatase inhibitors (Beta-glycerol phosphate 40 mM, DTT 1 mM, NaF 0.4 mM, Sodium-Orthovanadate 0.4 mM) at 4° C. for 1 hour. Cell lysates were then centrifuged at 2×10^4 g for 10 minutes at 4° C., and the protein concentration of the supernatant was quantified using the Bradford's method (BioRad, USA). For SDS-PAGE, 50 μg protein was loaded in SDS-PAGE, transferred to a polyvinylidene difluoride membrane (Bio-Rad, USA) and blocked with 5 mL buffer [5% skim milk and 0.1% Tween] for 1 hour 30 minutes. Membrane were probed with primary antibody (all primary antibodies were from cell signaling with 1:1000 in TBST solution) of respective protein at 4° C. overnight. Peroxidase-labeled anti-rabbit or anti-mouse antibodies (Santacruze, USA) were used as the secondary antibody. Actin and respective whole protein levels were used as the control for protein loading. Protein antigens were detected using Chemiluminescent Substrate (Thermo scientific, USA) and exposed on Kodak station.

[20] = system: AsPC 1; experiment: Cytotoxicity propidium iodide assay, AsPC 1; format: cell-based; details: Homo sapiens, ASPC1; AsPC 1 (pancreatic), 48 hours treatment; read-out: IC50 Values in μM, C4b
Procedure: as §1
as §2, with “The plates were frozen at 70° C. overnight.” left out

[21] = system: MCF7; experiment: Cytotoxicity propidium iodide assay, MCF7; format: cell-based; details: Homo sapiens; MCF7 (breast), 48 hours treatment; read-out: IC50 Values in μM, C3d
Procedure: as §1, §2

[22] = system: MDA MB 231; experiment: Cytotoxicity propidium iodide assay, MDA MB 231; format: cell-based; details: Homo sapiens; MDA MB 231 (breast), 48 hours treatment; read-out: IC50 Values in μM, C3a
Procedure: as §1
as §2, with “The plates were frozen at 70° C. overnight.” left out

[23] = system: MDA MB 468; experiment: Cytotoxicity propidium iodide assay, MDA MB 468; format: cell-based; details: Homo sapiens; MDA MB 468 (breast), 48 hours treatment; read-out: IC50 Values in μM, C3b
Procedure: as §1, §2

Cn1c(=O)n(-c2ccc(C(C)(C)C#N)nc2)c2c3cc(-c4cccnc4)ccc3ncc21 [Example 1, 2-Methyl-2-(5-(3-methyl-2-oxo-8-(pyridin-3-yl)-2,3-dihydro-1H-imidazo[4,5-c]quinolin-1-yl)pyridin-2-yl)propanenitrile]
IC50 [1]: 3.3 µM | IC50 [2]: 0.62 µM | IC50 [3]: 0.9 µM | IC50 [4]: 0.4 µM | IC50 [5]: 0.22 µM | IC50 [6]: 0.96 µM | IC50 [7]: 1.18 µM

Cn1c(=O)n(-c2ccc(Cl)nc2Cl)c2c3cc(-c4cccnc4)ccc3ncc21 [Example 62, 1-(2,6-Dichloropyridin-3-yl)-3-methyl-8-(pyridin-3-yl)-1H-imidazo[4,5-c]quinolin-2(3H)-one]
IC50 [8]: 1.5 µM | IC50 [2]: 0.62 µM | IC50 [3]: 0.144 µM | IC50 [9]: 1.08 µM | inhibition at 1 µM ([4]; A2780, 1 μM, 48 hours, read-out: % Inhibition at 1 μM, C1a): 69% | inhibition at 1 µM ([5]; PC3, 1 μM, 48 hours, read-out: % Inhibition at 1 μM, C2a): 28% | IC50 [6]: 0.84 µM | IC50 [10]: 9.92 µM | IC50 [11]: 1.03 µM

Cn1c(=O)n(-c2ccc(C(F)(F)F)nc2)c2c3cc(-c4ccc(F)nc4F)ccc3ncc21 [Example 57, 8-(2,6-Difluoropyridin-3-yl)-3-methyl-1-(6-(trifluoromethyl)pyridin-3-yl)-1H-imidazo [4,5-c]quinolin-2(3H)-one]
inhibition at 0.025 µM [12]: 88% | % Toxicity at 0.025 μM [13]: 14% | inhibition at 0.025 µM [14]: 94% | inhibition at 0.025 µM [15]: 88% | inhibition at 0.025 µM [16]: 80% | % Toxicity at 0.025 μM [17]: 14%

Cn1c(=O)n(-c2ccc(C(F)(F)F)nc2)c2c3cc(-c4cnc(N)c(C(F)(F)F)c4)ccc3ncc21 [Example 55, 8-(6-Amino-5-(trifluoromethyl)pyridin-3-yl)-3-methyl-1-(6-(trifluoromethyl)pyridin-3-yl)-1H-imidazo[4,5-c]quinolin-2(3H)-one]
IC50 [8]: 0.17 µM | IC50 [1]: 0.19 µM | IC50 [18]: 0.027 µM | Akt, S6 and 4EBP1 phosphorylation (Western blot) [19]: inhibit Akt, S6 and 4EBP1 phosphorylation | IC50 [2]: 0.06 µM | IC50 [3]: 0.056 µM | IC50 [9]: 0.282 µM | IC50 [4]: 0.009 µM | IC50 [20]: 0.04 µM | IC50 [21]: 0.06 µM | IC50 [5]: 1.6 µM | IC50 [6]: 0.23 µM | IC50 [10]: 7.92 µM | IC50 [11]: 0.096 µM | IC50 [22]: 0.035 µM | IC50 [23]: 0.075 µM
